The values that follow come from patent US20240368168A1, “SARM1 ENZYME ACTIVITY INHIBITOR AND APPLICATION THEREOF” (ARTIVILA BIOPHARMA, priority 2021, published 2024).

The target in this experiment is T1, dN-SARM1 protein (Homo sapiens, UniProt Q6SZW1).
T1 construct: the N-terminal mitochondrial localization signal peptide of SARM1 was removed
T1 sequence (Q6SZW1 28-724): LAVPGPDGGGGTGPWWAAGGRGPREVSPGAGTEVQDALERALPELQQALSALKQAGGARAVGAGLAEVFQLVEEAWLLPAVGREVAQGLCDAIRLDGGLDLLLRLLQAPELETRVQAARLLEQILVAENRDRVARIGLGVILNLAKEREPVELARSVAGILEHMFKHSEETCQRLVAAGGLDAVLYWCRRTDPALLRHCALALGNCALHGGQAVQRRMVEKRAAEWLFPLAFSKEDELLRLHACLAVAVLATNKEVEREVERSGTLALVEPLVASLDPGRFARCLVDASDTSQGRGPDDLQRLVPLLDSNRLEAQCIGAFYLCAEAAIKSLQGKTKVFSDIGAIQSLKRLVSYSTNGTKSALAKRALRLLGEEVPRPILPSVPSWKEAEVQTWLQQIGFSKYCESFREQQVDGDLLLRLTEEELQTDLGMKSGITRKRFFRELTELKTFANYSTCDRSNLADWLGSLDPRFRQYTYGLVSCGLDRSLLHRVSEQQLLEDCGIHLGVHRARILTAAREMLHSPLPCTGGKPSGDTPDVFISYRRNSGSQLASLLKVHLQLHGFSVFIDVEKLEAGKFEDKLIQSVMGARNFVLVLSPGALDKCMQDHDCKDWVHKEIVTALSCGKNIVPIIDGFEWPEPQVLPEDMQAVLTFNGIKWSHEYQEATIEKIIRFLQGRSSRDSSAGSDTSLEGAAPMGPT
The experiment is described as follows: In vitro biochemical assay for inhibiting SARM1 enzymatic activity (IC50), PC6 fluorescence method. As to conditions: 50 μM NAD, 50 μM PC6, 50 μM NMN activator. As for the experimental part:
200 μM compound was first added to a solution of 0.05 μg/ml dN-SARM1 in 50 mM Tris-HCl (pH 7.5). Half of the mixture was added to an equal volume of a solution of 0.05 μg/ml dN-SARM1 in 50 mM Tris-HCl (pH 7.5) and mixed. The drug was diluted 6 times in this manner, with the final concentrations being 200, 100, 50, 25, 12.5, 6.25, 3.125 μM, or 200, 50, 12.5, 3.125, 0.78, 0.195, 0.049 μM, respectively. The protein without inhibitors added, being used as control group, was incubated at room temperature for 10 minutes.
50 μM NAD, 50 μM PC6 as substrate and 50 μM NMN as activator were added to the dN-SARM1 protein incubated with the inhibitor and reacted for 30 minutes at room temperature. The concentration of each component was the final concentration in the reaction system.
During the reaction, PC6 fluorescence spectrum dynamics were detected by a microplate reader, wherein the excitation wavelength and emission wavelength for detection were 390 nm and 520 nm, respectively. Finally, the reaction rate was used to express the activity of the protein, and the half inhibitory concentration was calculated. The higher the reaction rate, the stronger the protein activity, and the lower the inhibitory efficiency of the compound.
The dose curve of compounds inhibiting SARM1 enzymatic activity was determined using the above method.

Molecules are shown by their SMILES. Counter-ions that a name gives are not always drawn.

In the case of `c1cc(-c2cnc3ccc(-n4cccn4)cn23)c2cc[nH]c2c1` [Compound 202, 3-(1H-indol-4-yl)-6-(1H-pyrazol-1-yl)imidazo[1,2-a]pyridine], the IC50 – broadly, the midpoint of a concentration-inhibition curve – fell in the range of 1000 to 10000 nM. In turn, `Ic1cnc2ccc(-n3cccc3)cn12` [Compound 203] displayed an IC50 of less than 1000 nM. Compound `Nc1cccc(-c2cnc3ccc(N4CCCC4=O)cn23)c1` [Compound 204] yielded an IC50 of 1000 to 10000 nM. To `O=C(Nc1cccc(-c2cnc3ccc(-n4cccn4)cn23)c1)C1CCOCC1` [Compound 207] belongs 1000 to 10000 nM; to `CN(C(=O)OC(C)(C)C)c1ccc2ncc(-c3cncc4[nH]cc(I)c34)n2c1` [Compound 208, tert-butyl (3-(3-iodo-1H-pyrrolo[2,3-c]pyridin-4-yl)imidazo[1,2-a]pyridin-6-yl)(methyl) carbamate], 1000 to 10000 nM. Compound `CNc1ccc2ncc(-c3cncc4[nH]cc(I)c34)n2c1` [Compound 209] showed an IC50 of 1000 to 10000 nM. To `CNc1ccc2ncc(-c3cccc4c(I)n[nH]c34)n2c1` [Compound 210, 3-(3-iodo-1H-indazol-7-yl)-N-methylimidazol[1,2-a]pyridin-6-amine hydrochloride] belongs 1000 to 10000 nM; to `CC(C)(C)OC(=O)N(CCCc1ccccc1)c1ccc2ncc(-c3cccc(NC(=O)C4CCOCC4)c3)n2c1` [Compound 217], 1000 to 10000 nM. To `O=C(COCCOCc1ccccc1)Nc1cccc(-c2cnc3ccc(NCCCc4ccccc4)cn23)c1` [Compound 218] belongs 1000 to 10000 nM; to `O=C(Cc1ccc(Cl)cc1)Nc1ccn2c(-c3ccncc3)cnc2c1` [Compound 222], 1000 to 10000 nM; to `CN(C)c1ccc2ncc(-c3cccc4c3CNC4=O)n2c1` [Compound 223], less than 1000 nM. `c1cc(-c2cnc3ccc(N4CCOCC4)cn23)cc(N2CCOCC2)c1` [Compound 226] gave an IC50 of 1000 to 10000 nM. In turn, `COCCOCCNc1cccc(-c2cnc3ccc(N4CCOCC4)cn23)c1` [Compound 229] displayed an IC50 of 1000 to 10000 nM. In turn, `COCCNc1cccc(-c2cnc3ccc(N4CCOCC4)cn23)c1` [Compound 232] displayed an IC50 of 1000 to 10000 nM. Compound `COc1ccc2ncc(-c3cccc4c3CNC4=O)n2c1` [Compound 235] gave an IC50 of 1000 to 10000 nM. As to `CNc1ccc2ncc(-c3cccc(CNC(=O)C4CCOCC4)c3)n2c1` [Compound 242], the IC50 was less than 1000 nM. Turning to `CNc1ccc2ncc(-c3cccc(NC(=O)COCc4ccccc4)c3)n2c1` [Compound 250], the IC50 was in the range of 1000 to 10000 nM. In turn, `CNc1ccc2ncc(-c3cccc4c3CNC4=O)n2c1` [Compound 257] registered an IC50 of less than 1000 nM.

`CNc1ccc2ncc(-c3cncc4[nH]ccc34)n2c1` [Compound 258] had an IC50 of less than 1000 nM. The compound `CNc1ccc2ncc(-c3ccncc3F)n2c1` [Compound 261] registered an IC50 of less than 1000 nM. To `CN(C(=O)OC(C)(C)C)c1ccc2ncc(-c3cccc4cnccc34)n2c1` [Compound 263] belongs less than 1000 nM; to `CNc1ccc2ncc(-c3cccc4cnccc34)n2c1` [Compound 264], less than 1000 nM. The compound `CN(C(=O)OC(C)(C)C)c1ccc2ncc(-c3ccc4c(c3)CNC4=O)n2c1` [Compound 265] came in with an IC50 of less than 1000 nM. On to `CNc1ccc2ncc(-c3ccc4c(c3)CNC4=O)n2c1` [Compound 266], for which the IC50 was in the range of 1000 to 10000 nM. Compound `CN(C(=O)OC(C)(C)C)c1ccc2ncc(-c3cccc4cnn(C)c34)n2c1` [Compound 267] had an IC50 of less than 1000 nM. With `CN(C(=O)OC(C)(C)C)c1ccc2ncc(-c3cncc4ccccc34)n2c1` [Compound 268], the IC50 was less than 1000 nM.

On to `CNc1ccc2ncc(-c3cncc4ccccc34)n2c1` [Compound 269], for which the IC50 lay within 1000 to 10000 nM. In turn, `CN(C(=O)OC(C)(C)C)c1ccc2ncc(-c3ccc4ccncc4c3)n2c1` [Compound 270] showed an IC50 of less than 1000 nM. As for `CNc1ccc2ncc(-c3ccc4ccncc4c3)n2c1` [Compound 271], the figure is less than 1000 nM; as for `CN(C(=O)OC(C)(C)C)c1ccc2ncc(-c3cncnc3)n2c1` [Compound 283], 1000 to 10000 nM. As for `CNc1ccc2ncc(-c3ccc4cn[nH]c4c3)n2c1` [Compound 284], the figure is 1000 to 10000 nM; as for `CN(C(=O)OC(C)(C)C)c1ccc2ncc(-c3cccc4c3ccn4C)n2c1` [Compound 285], 1000 to 10000 nM.

Consider `CN1Cc2c(cccc2-c2cnc3ccc(N(C)C(=O)OC(C)(C)C)cn23)C1=O` [Compound 286], for which the IC50 is 1000 to 10000 nM. To `CNc1ccc2ncc(-c3cccc4c3CN(CCOC)C4=O)n2c1` [Compound 290] belongs 1000 to 10000 nM. On to `CN(C)CCN1Cc2c(cccc2-c2cnc3ccc(N(C)C(=O)OC(C)(C)C)cn23)C1=O` [Compound 291], for which the IC50 was in the range of 1000 to 10000 nM. Compound `CNc1ccc2ncc(-c3cccc4c3CN(CCN(C)C)C4=O)n2c1` [Compound 292] returned an IC50 of 1000 to 10000 nM. Compound `CN(C(=O)OC(C)(C)C)c1ccc2ncc(-c3ccnc4c3ccn4C)n2c1` [Compound 293] came in with a 50% inhibitory concentration (IC50) of less than 1000 nM. Take `CNc1ccc2ncc(-c3ccnc4c3ccn4C)n2c1` [Compound 294]: the IC50 is 1000 to 10000 nM. Turning to `CN(C(=O)OC(C)(C)C)c1ccc2ncc(-c3cc4ccn(C)c4cn3)n2c1` [Compound 295], the IC50 fell in the range of 1000 to 10000 nM. To `CNc1ccc2ncc(-c3cccc4c3CC(=O)N4C)n2c1` [Compound 296] belongs 1000 to 10000 nM. `CN(C(=O)OC(C)(C)C)c1ccc2ncc(-c3ccc4cc[nH]c4n3)n2c1` [Compound 297] had an IC50 of 1000 to 10000 nM. Take `CNc1ccc2ncc(-c3cccc4c3CC(=O)N4)n2c1` [Compound 298]: the concentration for half-maximal inhibition (IC50) lay in the range of 1000 to 10000 nM.

`CN(C(=O)C(C)(C)C)c1ccc2ncc(-c3cccc(N)c3)n2c1` [Compound 302]: the IC50 was in the range of 1000 to 10000 nM. The compound `CC(C)(C)C(=O)Nc1ccc2ncc(I)n2c1` [Compound 304] showed an IC50 of 1000 to 10000 nM. The compound `CN(C(=O)C1CC1)c1ccc2ncc(I)n2c1` [Compound 305] gave an IC50 of less than 1000 nM. With `CN(C(=O)C1CC1)c1ccc2ncc(-c3cccc(N)c3)n2c1` [Compound 306], the IC50 was less than 1000 nM.

`COC(=O)c1cccc(-c2cnc3ccc(N(C)C(C)=O)cn23)c1` [Compound 308] gave an IC50 of 1000 to 10000 nM. As for `CC(=O)N(C)c1ccc2ncc(-c3cccc(C(=O)NC4CCOCC4)c3)n2c1` [Compound 309], the figure is 1000 to 10000 nM; as for `COCCOCCNC(=O)c1cccc(-c2cnc3ccc(N(C)C(C)=O)cn23)c1` [Compound 310], 1000 to 10000 nM; as for `CN(C(=O)OC(C)(C)C)c1ccc2ncc(C3CCCc4ncccc43)n2c1` (stereo not drawn) [Compound 311], less than 1000 nM. As to `CNc1ccc2ncc(C3CCCc4ncccc43)n2c1` (stereo not drawn) [Compound 312], the IC50 is 1000 to 10000 nM.
